Source: publication PMC8156206, “Novel N,N′-Disubstituted Selenoureas as Potential Antioxidant and Cytotoxic Agents” (Antioxidants, 2021)

Experiments:
Experiment in all cases: cells
Format in all cases: cell-based
BT-549 (breast cancer) = system: BT-549 (breast cancer)
Text: (§1) The dose–response was also studied in the same 60 cancer cell lines, with outstanding results. […] Table 2 summarizes the GI50, TGI, and LC50 values of representative cell lines. Full data mean GI50 graphs are provided in the Supplementary Materials.

COLO-205 (colon cancer) = system: COLO-205 (colon cancer)
Text: as §1

HCT-116 (colon cancer) = system: HCT-116 (colon cancer)
Text: as §1

M14 (melanoma) = system: M14 (melanoma)
Text: as §1

[1] = system: MDA-MB-231/ATCC (breast cancer)
Text: as §1

[2] = system: MDA-MB-468 (breast cancer)
Text: as §1

NCI-60 cell line panel = system: NCI-60 cell line panel
Text: as §1

[3] = system: OVACAR-3 (ovarian cancer)
Text: as §1

SF-593 (CNS cancer) = system: SF-593 (CNS cancer)
Text: as §1

SK-MEL-5 (melanoma) = system: SK-MEL-5 (melanoma)
Text: as §1

UO-31 (renal cancer) = system: UO-31 (renal cancer)
Text: as §1

COc1ccc(NC(=[Se])NC23CC4CC(CC(C4)C2)C3)cc1 [Compound 6c, N´-adamantyl-N-(4-methoxyphenyl)selenourea]
TGI (BT-549 (breast cancer); BT-549, NCI-60): 2.29 µM
CC50 (BT-549 (breast cancer); Homo sapiens, BT-549, read-out: LC50): 5.62 µM
GI50 (BT-549 (breast cancer); Homo sapiens, BT-549, NCI-60): 870 nM
TGI (COLO-205 (colon cancer); COLO-205, NCI-60): 3.98 µM
CC50 (COLO-205 (colon cancer); Homo sapiens, COLO 205, read-out: LC50): 9.33 µM
GI50 (COLO-205 (colon cancer); Homo sapiens, COLO-205, NCI-60): 1660 nM
TGI (HCT-116 (colon cancer); HCT-116, NCI-60): 2.75 µM
CC50 (HCT-116 (colon cancer); Homo sapiens, HCT-116, read-out: LC50): 6.03 µM
GI50 (HCT-116 (colon cancer); Homo sapiens, HCT-116, NCI-60): 1290 nM
CC50 (M14 (melanoma); Homo sapiens, M14, read-out: LC50): 7.94 µM
GI50 (M14 (melanoma); Homo sapiens, M14, NCI-60): 1380 nM
TGI (M14 (melanoma); M14, NCI-60): 3.31 µM
CC50 ([1]; Homo sapiens, MDA-MB-231, read-out: LC50): 8.51 µM
GI50 ([1]; Homo sapiens, MDA-MB-231/ATCC, NCI-60): 1780 nM
TGI ([1]; MDA-MB-231/ATCC, NCI-60): 3.89 µM
CC50 ([2]; Homo sapiens, MDA-MB-468, read-out: LC50): 8.71 µM
GI50 ([2]; Homo sapiens, MDA-MB-468, NCI-60): 1350 nM
TGI ([2]; MDA-MB-468, NCI-60): 3.39 µM
GI50 (NCI-60 cell line panel; average for the 60 cell lines): 1490 nM
average TGI (NCI-60 cell line panel; average for the 60 cell lines): 9.17 µM
LC50 (NCI-60 cell line panel; read-out: LC50 values against 10 of the NCI60 cancer cell lines): 4.27 to 9.33 µM
CC50 ([3]; OVACAR3, read-out: LC50): 7.41 µM
GI50 ([3]; OVACAR3, OVACAR-3, NCI-60): 1380 nM
TGI ([3]; OVACAR-3, NCI-60): 3.24 µM
GI50 (SF-593 (CNS cancer); SF-593, NCI-60): 1910 nM
TGI (SF-593 (CNS cancer); SF-593, NCI-60): 4.17 µM
CC50 (SF-593 (CNS cancer); read-out: LC50): 9.33 µM
CC50 (SK-MEL-5 (melanoma); Homo sapiens, SK-MEL-5, read-out: LC50): 4.27 µM
GI50 (SK-MEL-5 (melanoma); Homo sapiens, SK-MEL-5, NCI-60): 560 nM
TGI (SK-MEL-5 (melanoma); SK-MEL-5, NCI-60): 1.78 µM
LC50 (concentration killing 50% of cells) (UO-31 (renal cancer); Homo sapiens, UO-31, read-out: LC50): 9.77 µM
GI50 (UO-31 (renal cancer); Homo sapiens, UO-31, NCI-60): 1740 nM
TGI (UO-31 (renal cancer); UO-31, NCI-60): 4.07 µM
